Data from PubChem BioAssay AID179 (DTP/NCI, 2004).
The source made the active and inactive calls.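 Rule for the calls: active = compounds giving half or more protection of infected cells from virus-caused growth loss, again on retest; inactive = the rest.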

Test system: CEM cells HIV-1 protection, formazan growth assay
Assay: NCI AIDS Antiviral Assay
Settings: for IC50: measured here: growth of uninfected CEM cells
Outline: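 Human CEM cells, uninfected and HIV-1-infected, received five drug concentrations, and growth was read by soluble formazan assay. Compounds giving at least 50% protection were retested; reproducible 100% protection defined confirmed active.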

Compound	outcome	EC50 [µM]	IC50 [µM]
CC[C@@]1(O)C(=O)OCc2c1cc1n(c2=O)Cc2cc3c(CN(C)C)c(O)ccc3nc2-1	inactive		
CC(=O)NC(Cc1ccccc1)C(=S)N1CCCC1 (stereo unspecified)		> 912	776
O=C(Nc1ccc(S(=O)(=O)/N=c2\ncccn2C(=O)C(C(F)(F)F)C(F)(F)F)cc1)C(C(F)(F)F)C(F)(F)F		> 200	> 200
COc1cc(C#N)c(NC(=S)N2CCN(C(=O)c3ccco3)CC2)cc1OC		> 200	120
CC(C)(Cc1ccccc1)N1C(=O)N1C(C)(C)Cc1ccccc1		> 200	28.8
Cc1nc(-c2ccccc2)c(C)n2c1nc1ccccc12		> 200	28.8
CCC(=O)C(C)C(=O)C(=O)C(=O)OC (stereo unspecified)		> 13.5	> 13.5
Cc1nc(Nc2ccc(Cl)cc2)sc1C(=O)NNc1ccc([N+](=O)[O-])cc1[N+](=O)[O-]		> 39.8	25.1
CN1CCN(CCSc2nnc(-c3ccc4ccccc4c3)c3ccccc23)CC1		> 219	12.9
COC(=O)c1cc2c(c3c1CC(Cc1ccccc1)C3=O)CCC2 (stereo unspecified)		> 200	33.1
O=c1c2ccccc2[se]n1-c1cccnc1		7.94	36.3
CC(SC(=S)N1CCOCC1)c1cc2oc(=O)n(C)c2cc1Cl (stereo unspecified)		> 10	> 10
O=S(=O)(O)C(C(I)I)S(=O)(=O)O		> 200	> 200
NC(=O)/N=N/C(N)=O		105	372
Cc1sc2c(c1C)C(=O)c1cccn1-2		> 200	170
CC(=O)N1N=C(C)C2ON=C(c3ccc(Cl)cc3)P21 (stereo unspecified)	inactive		
CC1CCC(C(C)C)/C(=N/NC(=O)CC#N)C1 (stereo unspecified)		> 200	> 200
C[C@]12CCC3[C@@H](CC[C@@H]4c5nonc5CC[C@]34C)C1CCC2=O (stereo partly specified)		> 57.5	> 57.5
O=C1c2ccccc2OC(Cl)(c2ccccc2)C1Cl (stereo unspecified)		> 200	31.6
COC(=O)[C@@]12CN(C)[C@@H](C(C)(C)C)N1C(=O)OC2c1ccccc1 (stereo partly specified)		> 200	> 200
C[C@H](c1ccccc1)N1C(=O)[C@@H](OCc2ccccc2)[C@H]1[C@H](COC(=O)COCc1ccccc1)OCc1ccccc1		> 200	> 200
NC(=O)C(=O)C1CCC2=C(Sc3ccccc3N2)C1=O (stereo unspecified)		> 46.8	> 46.8

Compound	outcome	EC50 [µM]	IC50 [µM]
Cc1nc2ccccc2c2c(N)cccc12		> 200	> 200
COc1ccc(C2=[N+]([O-])c3ccccc3C2=O)cc1	inactive		
O=C1CC(c2ccc(Cl)cc2)C2(C(=O)NC(=O)NC2=O)C(c2ccc(Cl)cc2)C1 (stereo unspecified)		> 75.9	34.7
COc1c(OC(C)=O)c(OC(C)=O)cc2c1-c1ccc(OC)c(=O)cc1C(NC(C)=O)CC2 (stereo unspecified)		> 0.2	0.0115
O=C1/C(=C/c2ccc([N+](=O)[O-])cc2)CCCc2ccccc21		> 141	> 141
CC12c3ccccc3C(OC=O)(c3ccccc31)C1(C)c3ccccc3C2(OC=O)c2ccccc21		> 3.09	> 3.09
O/N=C1/C(=C/c2ccc(Cl)c(Cl)c2)CCCC1C(NO)c1ccc(Cl)c(Cl)c1 (stereo unspecified)		> 3.16	> 3.16
O=S(=O)(c1ccc(N=C=S)cc1)N1CCCCC1		> 200	97.7
CC(=O)O/C=C\OC1CCCC1(c1ccccc1)c1ccccc1 (stereo unspecified)		> 200	1.38
C[C@@H]1C[C@H](C)S(=O)[C@H](C)S1 (stereo partly specified)		> 1410	> 1410
CC(=O)OC[C@@H](OC(C)=O)[C@H](OC(C)=O)[C@@H]1OC(C)(C)O[C@@H]1C1SCCCS1		> 200	> 200
C[N+]1(CCCl)CCc2ccc([N+](=O)[O-])cc2C1 (stereo unspecified)		> 200	> 200
CC1c2c(cc(=O)n(Cc3ccccc3)c2O)C(=O)N1C (stereo unspecified)		> 126	112
O=C(O)c1cccc(-c2c3ccc(=O)cc-3oc3cc(O)ccc23)c1		> 316	53.7
COCCOCCOCCOCCOCCOCCOCCOCCOCCOCCOCCOCCOCCOCCOCCOCCOCC(=O)N(CCn1ccc(NC(c2ccccc2)(c2ccccc2)c2ccccc2)nc1=O)CCn1ccc(NC(c2ccccc2)(c2ccccc2)c2ccccc2)nc1=O		20	22.9
C=C=C(CC(CC=C(C)C)(C(C)=O)C(=O)OC(C)(C)C)S(=O)(=O)c1ccccc1 (stereo unspecified)		> 32.4	6.17
C=C(C)CN1C(=O)C(C)S/C1=N/N=C1/SCC(=O)N1C (stereo unspecified)		> 42.7	> 42.7
O=S1(=O)c2ccccc2N2C(c3ccccc3)=NOC2(c2ccccc2)CC1c1ccc(Br)cc1 (stereo unspecified)	inactive		
CC12CCC(C(=Nc3ccc([N+](=O)[O-])cc3)C1=O)C2(C)C (stereo unspecified)		> 200	35.5
N#CC(Cc1ccccc1)C(=O)NN (stereo unspecified)		> 200	> 200
CCC[CH2][Sn]([CH2]CCC)([O]c1cccc2cccnc12)[O]c1cccc2cccnc12	inactive		
